Experimental data: patent publication EP1561465A2, “Methods of use of fluoroquinolone compounds against bacteria” (LG Life Sciences, Ltd., priority 1999, dated 2001)
Converted amounts (≈) assume the structure as drawn. Where two headings read alike, the source gives them in different places.

Experiments:
Type in all cases: cell-based
[1] = system: Gram positive anaerobic and facultative anaerobic pathogens; assay: microbe, parasite or virus in culture
Klebsiella pneumoniae = assay: MIC by NCCLS broth microdilution, 1100 Japanese clinical isolates 1997-1998; conditions: Klebsiella pneumoniae (n=35)
Haemophilus influenzae = assay: MIC by agar dilution (NCCLS), 411 isolates Buenos Aires 1998-99; conditions: Haemophilus influenzae (n = 65)
Enterococcus faecium = assay: MIC by NCCLS broth microdilution, 1100 Japanese clinical isolates 1997-1998; conditions: for MIC: Enterococcus faecium
[2] = system: Mycobacterium tuberculosis (MTB); assay: MIC by proportions method (NCCLS M24-T, 1995), 82 MTB strains; conditions: compared with the other quinolones
Enterobacter cloacae = assay: MIC by NCCLS broth microdilution, 1100 Japanese clinical isolates 1997-1998; conditions: Enterobacter cloacae (n=40)
Streptococcus pneumoniae = assay: as above; conditions: for MIC50 / MIC90 / MIC: Streptococcus pneumoniae; for MIC50: read-out: MIC50; for MIC90: read-out: MIC90; for MIC: Streptococcus pneumoniae quinolone resistant
Enterococcus gallinarum = assay: as above
Salmonella spp. = assay: as above; conditions: Salmonella spp. (n=29)
Enterococcus faecalis = assay: as above; conditions: for MIC90 / MIC50: Enterococcus faecalis
Escherichia coli = assay: MIC by agar dilution (NCCLS), 322 nosocomial Gram negative isolates, Athens 1998; conditions: n = 57 isolates
[3] = Streptococcus pneumoniae amoxicillin resistant (n=40)
[4] = Streptococcus pneumoniae amoxicillin susceptible (n=35)
[5] = Streptococcus pneumoniae erythromycin resistant (n=34)
[6] = Streptococcus pneumoniae erythromycin susceptible (n=11)
[7] = Enterococcus faecalis ciprofloxacin resistant (n=15)
[8] = Enterococcus faecalis ciprofloxacin susceptible (n=24)

SMILES: CO/N=C1\CN(c2nc3c(cc2F)c(=O)c(C(=O)O)cn3C2CC2)CC1CN (racemic) [Gemifloxacin, (R,S)-7-(3-aminomethyl-4-methoxyiminopyrrolidin-1-yl)-1-cyclopropyl-6-fluoro-4-oxo-1,4-dihydro-1,8-naphthyridine-3-carboxylic acid]
- MIC ([1]; Gemella morbillorum, ATCC27824): 0.25 µg/mL (≈ 0.642 µM)
- MIC ([1]; Lacticaseibacillus casei, JCM1134): ≤ 0.03 µg/mL
- MIC ([1]; Lactiplantibacillus plantarum, JCM1149): 2 µg/mL (≈ 5.14 µM)
- MIC ([1]; Lactobacillus acidophilus, JCM1132): 0.5 µg/mL (≈ 1.28 µM)
- MIC ([1]; Levilactobacillus brevis, JCM1059): 0.5 µg/mL (≈ 1.28 µM)
- MIC ([1]; Ligilactobacillus salivarius, JCM1231): 0.06 µg/mL (≈ 0.154 µM)
- MIC ([1]; Limosilactobacillus reuteri, JCM1112): 0.25 µg/mL (≈ 0.642 µM)
- MIC ([1]; Limosilactobacillus reuteri, JCM1173): 0.25 µg/mL (≈ 0.642 µM)
- MIC ([1]; Paraclostridium sordellii, ATCC9714): 0.5 µg/mL (≈ 1.28 µM)
- MIC ([1]; Parvimonas micra): 0.125 µg/mL (≈ 0.321 µM)
- MIC ([1]; Peptoniphilus asaccharolyticus): 0.125 µg/mL (≈ 0.321 µM)
- MIC ([1]; Peptoniphilus indolicus): ≤ 0.03 µg/mL
- MIC ([1]; Peptostreptococcus anaerobius, ATCC27337): 0.06 µg/mL (≈ 0.154 µM)
- MIC ([1]; Schaalia odontolytica): 4 µg/mL (≈ 10.3 µM)
- MIC ([1]; Staphylococcus saccharolyticus, ATCC14953): ≤ 0.03 µg/mL
- MIC ([1]; Streptococcus constellatus, ATCC27823): ≤ 0.03 µg/mL
- MIC ([1]; Streptococcus intermedius, ATCC27335): 0.06 µg/mL (≈ 0.154 µM)
- MIC ([1]; Thomasclavelia ramosa, ATCC25582): 0.5 µg/mL (≈ 1.28 µM)
- MIC50 (Klebsiella pneumoniae): 0.032 µg/mL (≈ 0.0822 µM)
- MIC Range (Klebsiella pneumoniae): 0.016 to 1 µg/mL
- MIC90 (Klebsiella pneumoniae; read-out: MIC90): 0.063 µg/mL (≈ 0.162 µM)
- MIC90 (Haemophilus influenzae): 8 ng/mL (≈ 0.0205 µM)
- MIC Range (Haemophilus influenzae): ≤4 to 125 ng/mL
- MIC50 (Enterococcus faecium; Enterococcus faecium (n=39)): 16 µg/mL (≈ 41.1 µM)
- MIC90 (Enterococcus faecium; Enterococcus faecium (n=39)): 64 µg/mL (≈ 164 µM)
- MIC Range (Enterococcus faecium; Enterococcus faecium (n=39)): 0.063 to 64 µg/mL
- MIC (Enterococcus faecium; Enterococcus faecium (vanA) vancomycin resistant, strain TMS1): 16 µg/mL (≈ 41.1 µM)
- MIC (Enterococcus faecium; Enterococcus faecium (vanA) vancomycin resistant, strain TMS2): 2 µg/mL (≈ 5.14 µM)
- MIC (Enterococcus faecium; Enterococcus faecium (vanA) vancomycin resistant, strain TMS3): 4 µg/mL (≈ 10.3 µM)
- MIC (Enterococcus faecium; Enterococcus faecium (vanA) vancomycin resistant, strain TMS4): 4 µg/mL (≈ 10.3 µM)
- MIC (Enterococcus faecium; Enterococcus faecium (vanA) vancomycin resistant, strain TMS5): 2 µg/mL (≈ 5.14 µM)
- MIC (Enterococcus faecium; Enterococcus laecium (van B) vancomycin resistant, strain TMS6): 32 µg/mL (≈ 82.2 µM)
- MIC (Enterococcus faecium; Enterococcus laecium (van B) vancomycin resistant, strain TMS7): 32 µg/mL (≈ 82.2 µM)
- in vitro activity against MTB [2]: lower in vitro activity
- MIC50 (Enterobacter cloacae): 0.032 µg/mL (≈ 0.0822 µM)
- MIC90 (Enterobacter cloacae): 1 µg/mL (≈ 2.57 µM)
- MIC Range (Enterobacter cloacae): ≤8 to 2000 ng/mL
- MIC Range (Streptococcus pneumoniae; [3]): 0.016 to 0.125 µg/mL
- MIC Range (Streptococcus pneumoniae; [4]): ≤0.008 to 0.125 µg/mL
- MIC Range (Streptococcus pneumoniae; [5]): ≤0.008 to 0.125 µg/mL
- MIC Range (Streptococcus pneumoniae; [6]): 0.016 to 0.032 µg/mL
- MIC50 (Streptococcus pneumoniae; [3]): 0.032 µg/mL (≈ 0.0822 µM)
- MIC90 (Streptococcus pneumoniae; [3]): 0.032 µg/mL (≈ 0.0822 µM)
- MIC50 (Streptococcus pneumoniae; [4]): 0.016 µg/mL (≈ 0.0411 µM)
- MIC90 (Streptococcus pneumoniae; [4]): 0.032 µg/mL (≈ 0.0822 µM)
- MIC50 (Streptococcus pneumoniae; [5]): 0.016 µg/mL (≈ 0.0411 µM)
- MIC90 (Streptococcus pneumoniae; [5]): 0.032 µg/mL (≈ 0.0822 µM)
- MIC50 (Streptococcus pneumoniae; [6]): 0.032 µg/mL (≈ 0.0822 µM)
- MIC90 (Streptococcus pneumoniae; [6]): 0.032 µg/mL (≈ 0.0822 µM)
- MIC (Streptococcus pneumoniae; strain TMS1): 0.032 µg/mL (≈ 0.0822 µM)
- MIC (Streptococcus pneumoniae; strain TMS2): 0.5 µg/mL (≈ 1.28 µM)
- activity higher than that of the other quinolones (Streptococcus pneumoniae; quinolone-resistant S. pneumoniae): 2-128 fold
- MIC (Enterococcus gallinarum; Enterococcus gallinarum (vanC1), strain TMS3): 0.125 µg/mL (≈ 0.321 µM)
- MIC (Enterococcus gallinarum; Enterococcus gallinarum, GALLINARUM): 0.125 µg/mL (≈ 0.321 µM)
- MIC (Enterococcus gallinarum; Enterococcus gallinarum, GALLINARUM, Enterococcus gallinarum (vanC1), strain TMS1, read-out: MIC): 0.032 µg/mL (≈ 0.0822 µM)
- MIC (Enterococcus gallinarum; Enterococcus gallinarum, GALLINARUM, Enterococcus gallinarum (vanC1), strain TMS4, read-out: MIC): 0.032 µg/mL (≈ 0.0822 µM)
- MIC50 (Salmonella spp.): 0.032 µg/mL (≈ 0.0822 µM)
- MIC90 (Salmonella spp.): 0.032 µg/mL (≈ 0.0822 µM)
- MIC90 (Enterococcus faecalis): 0.125 µg/mL (≈ 0.321 µM)
- MIC Range (Enterococcus faecalis; [7]): 0.063 to 32 µg/mL
- MIC Range (Enterococcus faecalis; [8]): 0.063 to 0.125 µg/mL
- MIC50 (Enterococcus faecalis; [7]): 1 µg/mL (≈ 2.57 µM)
- MIC90 (Enterococcus faecalis; Enterococcus faecalis ciprofloxacin resistant (n=15), read-out: MIC90): 8 µg/mL (≈ 20.5 µM)
- MIC50 (Enterococcus faecalis; [8]): 0.063 µg/mL (≈ 0.162 µM)
- MIC50 (Escherichia coli; Escherichia coli): ≤ 0.03 µg/mL
- MIC90 (Escherichia coli; Escherichia coli): 0.25 µg/mL (≈ 0.642 µM)
- MIC Range (Escherichia coli): ≤0.03 to 64 µg/mL
